Columns and labels:
Assay in all cases: KiNativ, OCI cells live cell
[1] = target: T1, RSK2 domain2 (Homo sapiens, UniProt P51812); assay type: cell-based; conditions: 2 h, labeling site Lys2, peptide […]
T1 construct: RSK2 domain2

[2] = target: CHK1 (Homo sapiens, UniProt O14757); assay type: cell-based; conditions: labeling site Lys2, peptide DIKPENLLLDER
[3] = target: LOK (Homo sapiens, UniProt O94804); assay type: cell-based; conditions: labeling site Lys2, peptide DLKAGNVLMTLEGDIR
[4] = target: T2, ULK1 (Homo sapiens, UniProt O75385); assay type: cell-based
T2 sequence (O75385 1-1050): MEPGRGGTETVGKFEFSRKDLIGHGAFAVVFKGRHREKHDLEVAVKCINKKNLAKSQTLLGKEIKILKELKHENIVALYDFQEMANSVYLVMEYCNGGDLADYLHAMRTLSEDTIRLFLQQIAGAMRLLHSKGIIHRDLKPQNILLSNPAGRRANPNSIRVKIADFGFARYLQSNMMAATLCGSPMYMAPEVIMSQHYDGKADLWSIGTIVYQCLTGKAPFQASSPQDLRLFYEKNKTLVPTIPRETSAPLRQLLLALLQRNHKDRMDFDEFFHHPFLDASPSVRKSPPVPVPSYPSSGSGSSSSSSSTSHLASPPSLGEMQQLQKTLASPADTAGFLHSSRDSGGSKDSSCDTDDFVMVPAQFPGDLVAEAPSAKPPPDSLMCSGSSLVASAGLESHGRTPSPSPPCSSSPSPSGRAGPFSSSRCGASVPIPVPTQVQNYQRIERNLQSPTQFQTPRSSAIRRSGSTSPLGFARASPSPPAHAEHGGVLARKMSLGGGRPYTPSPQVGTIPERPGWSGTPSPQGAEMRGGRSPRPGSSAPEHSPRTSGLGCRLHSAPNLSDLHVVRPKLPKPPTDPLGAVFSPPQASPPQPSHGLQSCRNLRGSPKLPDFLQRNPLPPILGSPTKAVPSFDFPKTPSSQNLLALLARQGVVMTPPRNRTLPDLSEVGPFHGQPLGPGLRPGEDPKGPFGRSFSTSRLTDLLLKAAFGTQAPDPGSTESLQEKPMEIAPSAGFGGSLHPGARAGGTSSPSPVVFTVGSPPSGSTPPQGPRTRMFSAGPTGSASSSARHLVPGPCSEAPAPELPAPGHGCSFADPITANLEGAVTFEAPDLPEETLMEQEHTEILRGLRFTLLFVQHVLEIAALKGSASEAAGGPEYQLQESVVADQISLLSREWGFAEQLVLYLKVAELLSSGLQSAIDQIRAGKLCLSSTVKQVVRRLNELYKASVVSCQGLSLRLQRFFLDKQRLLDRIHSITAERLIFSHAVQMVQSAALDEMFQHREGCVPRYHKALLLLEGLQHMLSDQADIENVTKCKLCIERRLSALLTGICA

[5] = target: PAK2 (Homo sapiens, UniProt Q13177); assay type: cell-based; conditions: 2 h
[6] = target: AGK (Homo sapiens, UniProt Q53H12); assay type: cell-based; conditions: 2 h, labeling site ATP, peptide […]
[7] = target: IRAK1 (Homo sapiens, UniProt P51617); assay type: cell-based; conditions: 2 h, labeling site Lys2, peptide […]
[8] = system: CaMK2a, CaMK2b, CaMK2d, CaMK2g; assay type: cell-based, human; conditions: labeling site Lys2, peptide DLKPENLLLASK
[9] = target: MLK3 (Homo sapiens, UniProt Q16584); assay type: cell-based; conditions: labeling site Lys2, peptide DLKSNNILLLQPIESDDMEHK
[10] = target: PKN1 (Homo sapiens, UniProt Q16512); assay type: cell-based; conditions: 2 h
[11] = target: RAF1 (Homo sapiens, UniProt P04049); assay type: cell-based; conditions: 2 h, labeling site Lys2, peptide […]
[12] = target: ULK3 (Homo sapiens, UniProt Q6PHR2); assay type: cell-based; conditions: labeling site Lys1, peptide EVVAIKCVAK
[13] = target: PFTAIRE1 (Homo sapiens, UniProt O94921); assay type: cell-based
[14] = system: Wnk1, Wnk2; assay type: cell-based, human; conditions: labeling site ATP Loop, peptide GSFKTVYK
[15] = target: AKT1 (Homo sapiens, UniProt P31749); assay type: cell-based; conditions: 2 h, labeling site ATP Loop, peptide […]
[16] = target: PIK3CD (Homo sapiens, UniProt O00329); assay type: cell-based; conditions: 2 h, labeling site ATP, peptide […]
Sequence of PIK3CD (O00329 whole entry): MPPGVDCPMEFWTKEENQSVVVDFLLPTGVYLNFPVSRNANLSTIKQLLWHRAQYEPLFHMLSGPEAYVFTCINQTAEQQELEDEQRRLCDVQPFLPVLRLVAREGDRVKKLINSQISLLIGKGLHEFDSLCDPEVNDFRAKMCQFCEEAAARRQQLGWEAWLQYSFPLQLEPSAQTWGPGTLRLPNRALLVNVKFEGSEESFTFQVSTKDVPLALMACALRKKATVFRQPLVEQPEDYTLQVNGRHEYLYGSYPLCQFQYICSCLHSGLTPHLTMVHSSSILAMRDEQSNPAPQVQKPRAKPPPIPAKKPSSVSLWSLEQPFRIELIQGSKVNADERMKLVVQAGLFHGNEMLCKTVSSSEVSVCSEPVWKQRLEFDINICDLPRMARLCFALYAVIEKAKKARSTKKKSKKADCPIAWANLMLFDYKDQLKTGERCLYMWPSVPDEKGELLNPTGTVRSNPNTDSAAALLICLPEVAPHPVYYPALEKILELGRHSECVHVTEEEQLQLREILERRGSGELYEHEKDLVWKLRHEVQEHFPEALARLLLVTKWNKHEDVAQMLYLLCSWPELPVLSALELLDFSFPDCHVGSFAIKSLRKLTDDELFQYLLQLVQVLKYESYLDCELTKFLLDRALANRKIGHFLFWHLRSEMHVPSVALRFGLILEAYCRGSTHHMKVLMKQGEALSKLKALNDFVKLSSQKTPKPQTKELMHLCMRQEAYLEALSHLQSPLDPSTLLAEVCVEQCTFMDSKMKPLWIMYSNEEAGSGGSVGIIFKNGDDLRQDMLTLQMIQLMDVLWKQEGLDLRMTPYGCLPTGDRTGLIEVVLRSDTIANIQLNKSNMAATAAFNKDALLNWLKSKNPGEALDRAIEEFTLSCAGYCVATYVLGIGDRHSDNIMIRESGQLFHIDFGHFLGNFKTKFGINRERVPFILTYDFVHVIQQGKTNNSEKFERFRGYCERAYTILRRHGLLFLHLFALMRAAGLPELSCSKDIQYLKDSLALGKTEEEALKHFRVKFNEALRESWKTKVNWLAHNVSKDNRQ
Sequence of PIK3CD (P27986 whole entry partner): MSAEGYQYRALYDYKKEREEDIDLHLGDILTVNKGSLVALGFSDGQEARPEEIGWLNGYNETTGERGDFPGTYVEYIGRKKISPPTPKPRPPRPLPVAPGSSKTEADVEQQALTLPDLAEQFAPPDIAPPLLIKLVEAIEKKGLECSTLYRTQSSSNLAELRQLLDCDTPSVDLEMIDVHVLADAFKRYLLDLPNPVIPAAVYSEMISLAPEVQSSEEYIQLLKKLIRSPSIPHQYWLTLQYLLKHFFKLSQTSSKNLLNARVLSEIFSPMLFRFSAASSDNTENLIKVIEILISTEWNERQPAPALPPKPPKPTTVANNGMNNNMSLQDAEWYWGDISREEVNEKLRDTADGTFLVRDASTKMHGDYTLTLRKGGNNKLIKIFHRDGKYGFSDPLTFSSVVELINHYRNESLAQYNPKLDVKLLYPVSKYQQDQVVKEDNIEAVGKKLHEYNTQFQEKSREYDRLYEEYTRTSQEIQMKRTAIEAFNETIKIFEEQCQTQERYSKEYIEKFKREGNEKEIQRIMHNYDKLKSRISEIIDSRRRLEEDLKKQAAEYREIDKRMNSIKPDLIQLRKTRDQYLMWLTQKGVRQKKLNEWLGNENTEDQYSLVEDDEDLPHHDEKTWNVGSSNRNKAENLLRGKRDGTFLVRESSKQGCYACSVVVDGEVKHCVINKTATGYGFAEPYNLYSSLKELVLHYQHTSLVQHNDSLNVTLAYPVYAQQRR

Sequence of PAK2 (Q13177 whole entry): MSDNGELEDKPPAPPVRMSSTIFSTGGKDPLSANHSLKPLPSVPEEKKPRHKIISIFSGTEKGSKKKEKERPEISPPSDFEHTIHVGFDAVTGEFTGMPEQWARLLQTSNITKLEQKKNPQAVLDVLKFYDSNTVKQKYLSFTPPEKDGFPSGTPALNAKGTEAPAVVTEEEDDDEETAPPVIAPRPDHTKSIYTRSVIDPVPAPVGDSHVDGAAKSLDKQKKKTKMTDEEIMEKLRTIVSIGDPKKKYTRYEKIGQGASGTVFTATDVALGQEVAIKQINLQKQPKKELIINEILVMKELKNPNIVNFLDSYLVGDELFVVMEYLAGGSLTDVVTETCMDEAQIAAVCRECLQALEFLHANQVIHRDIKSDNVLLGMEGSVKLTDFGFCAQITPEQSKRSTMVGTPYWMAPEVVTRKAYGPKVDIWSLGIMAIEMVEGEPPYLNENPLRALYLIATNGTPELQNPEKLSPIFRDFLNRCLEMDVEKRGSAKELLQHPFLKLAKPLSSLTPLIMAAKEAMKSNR
Sequence of PFTAIRE1 (O94921 whole entry): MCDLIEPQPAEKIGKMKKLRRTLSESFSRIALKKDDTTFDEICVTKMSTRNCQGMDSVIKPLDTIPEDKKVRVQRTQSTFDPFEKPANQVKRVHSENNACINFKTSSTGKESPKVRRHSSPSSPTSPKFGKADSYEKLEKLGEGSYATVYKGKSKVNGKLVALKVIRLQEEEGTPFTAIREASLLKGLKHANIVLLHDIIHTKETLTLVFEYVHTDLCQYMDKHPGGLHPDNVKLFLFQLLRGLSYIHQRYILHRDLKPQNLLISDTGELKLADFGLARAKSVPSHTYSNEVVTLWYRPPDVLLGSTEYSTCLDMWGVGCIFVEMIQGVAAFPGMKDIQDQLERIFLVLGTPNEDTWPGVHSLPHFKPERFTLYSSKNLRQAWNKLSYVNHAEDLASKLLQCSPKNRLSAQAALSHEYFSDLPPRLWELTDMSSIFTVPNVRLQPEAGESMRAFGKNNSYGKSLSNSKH
Sequence of PFTAIRE1 (Q8ND76 whole entry partner): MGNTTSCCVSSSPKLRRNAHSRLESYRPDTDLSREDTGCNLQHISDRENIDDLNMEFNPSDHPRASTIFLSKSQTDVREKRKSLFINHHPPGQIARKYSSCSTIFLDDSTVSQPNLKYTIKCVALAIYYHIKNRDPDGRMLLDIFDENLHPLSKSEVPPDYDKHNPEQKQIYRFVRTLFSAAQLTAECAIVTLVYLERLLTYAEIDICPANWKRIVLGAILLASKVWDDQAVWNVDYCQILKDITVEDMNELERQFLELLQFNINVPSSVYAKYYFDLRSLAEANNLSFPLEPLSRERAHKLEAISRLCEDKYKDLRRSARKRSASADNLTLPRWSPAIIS
Sequence of PKN1 (Q16512 whole entry): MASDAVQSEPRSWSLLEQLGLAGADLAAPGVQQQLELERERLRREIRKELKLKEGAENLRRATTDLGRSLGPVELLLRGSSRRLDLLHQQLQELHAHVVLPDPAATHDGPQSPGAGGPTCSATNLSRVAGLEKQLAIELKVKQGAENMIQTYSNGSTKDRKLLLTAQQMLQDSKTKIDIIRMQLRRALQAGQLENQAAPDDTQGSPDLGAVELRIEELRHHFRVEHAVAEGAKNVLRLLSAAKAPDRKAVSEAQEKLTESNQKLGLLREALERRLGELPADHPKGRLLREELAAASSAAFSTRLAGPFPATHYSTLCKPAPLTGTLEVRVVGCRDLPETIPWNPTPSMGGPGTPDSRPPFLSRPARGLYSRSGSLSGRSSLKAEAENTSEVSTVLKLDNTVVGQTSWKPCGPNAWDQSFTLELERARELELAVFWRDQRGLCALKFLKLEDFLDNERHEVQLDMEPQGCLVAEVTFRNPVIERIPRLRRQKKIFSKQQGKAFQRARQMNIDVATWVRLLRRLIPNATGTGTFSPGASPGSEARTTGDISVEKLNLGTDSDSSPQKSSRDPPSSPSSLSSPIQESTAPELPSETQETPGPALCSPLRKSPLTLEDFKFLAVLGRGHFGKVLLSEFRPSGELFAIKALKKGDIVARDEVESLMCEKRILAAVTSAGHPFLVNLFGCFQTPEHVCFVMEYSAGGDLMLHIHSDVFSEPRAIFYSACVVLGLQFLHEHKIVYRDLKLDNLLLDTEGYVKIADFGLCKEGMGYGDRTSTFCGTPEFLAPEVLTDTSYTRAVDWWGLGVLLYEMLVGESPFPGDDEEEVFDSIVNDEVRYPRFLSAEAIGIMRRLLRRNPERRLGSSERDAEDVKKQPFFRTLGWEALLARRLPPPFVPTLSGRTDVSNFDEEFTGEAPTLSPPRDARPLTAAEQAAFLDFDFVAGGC
Sequence of CHK1 (O14757 whole entry): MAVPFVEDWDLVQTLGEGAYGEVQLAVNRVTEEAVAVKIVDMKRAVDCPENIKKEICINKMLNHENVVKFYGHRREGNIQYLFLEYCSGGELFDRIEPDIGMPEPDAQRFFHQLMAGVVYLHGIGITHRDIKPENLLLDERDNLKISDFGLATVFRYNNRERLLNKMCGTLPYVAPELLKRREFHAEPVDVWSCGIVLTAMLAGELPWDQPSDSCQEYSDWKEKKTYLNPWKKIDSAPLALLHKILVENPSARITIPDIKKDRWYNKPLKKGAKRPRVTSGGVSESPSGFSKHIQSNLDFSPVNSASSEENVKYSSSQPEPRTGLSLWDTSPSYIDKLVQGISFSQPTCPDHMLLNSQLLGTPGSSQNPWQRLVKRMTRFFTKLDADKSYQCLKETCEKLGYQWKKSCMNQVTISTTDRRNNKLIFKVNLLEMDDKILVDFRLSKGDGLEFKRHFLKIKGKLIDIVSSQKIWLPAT
Sequence of AKT1 (P31749 whole entry): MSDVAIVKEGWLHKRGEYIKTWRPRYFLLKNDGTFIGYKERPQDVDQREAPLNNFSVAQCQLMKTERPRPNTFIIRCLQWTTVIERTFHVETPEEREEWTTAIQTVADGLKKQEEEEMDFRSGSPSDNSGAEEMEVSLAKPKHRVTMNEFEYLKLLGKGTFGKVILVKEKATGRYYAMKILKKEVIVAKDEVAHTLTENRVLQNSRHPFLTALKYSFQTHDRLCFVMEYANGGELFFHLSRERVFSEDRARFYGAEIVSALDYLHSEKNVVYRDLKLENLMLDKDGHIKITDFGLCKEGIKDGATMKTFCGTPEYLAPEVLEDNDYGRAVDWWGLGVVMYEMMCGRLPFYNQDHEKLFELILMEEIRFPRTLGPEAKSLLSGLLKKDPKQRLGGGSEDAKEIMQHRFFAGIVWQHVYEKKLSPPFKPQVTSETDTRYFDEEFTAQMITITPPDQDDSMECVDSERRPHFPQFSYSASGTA

Question: With `CN1CCN(Cc2ccc(Nc3ncc(Cl)c(Nc4ccccc4S(=O)(=O)N(C)C)n3)cc2)CC1` [TP-0903] as the compound, how does the inhibition at 0.1 µM [1] read?
Answer: The inhibition at 0.1 µM was -18.2%.

Question: What about the Inhibition [2] of the same compound?
Answer: The Inhibition was 29.7%.

Question: What about the Inhibition [3] of the same compound?
Answer: The Inhibition was 86.9%.

Question: What about the Inhibition ([4]; labeling site Lys1, peptide HDLEVAVKCINKK) of the same compound?
Answer: The Inhibition was 23.3%.

Question: What about the Inhibition ([4]; labeling site Lys2, peptide DLKPQNILLSNPAGR) of the same compound?
Answer: The Inhibition was 59.5%.

Question: And the inhibition at 0.1 µM ([5]; labeling site Lys1, peptide IGQGASGTVFTATDVALGQEVAIKQINLQK)?
Answer: Its inhibition at 0.1 µM is -53.1%.

Question: And the inhibition at 0.1 µM ([5]; labeling site Other, peptide KNPQAVLDVLKFYDSNTVK)?
Answer: Its inhibition at 0.1 µM is -21.3%.

Question: What about the inhibition at 0.1 µM [6] of the same compound?
Answer: Its inhibition at 0.1 µM is -26.9%.

Question: And the inhibition at 0.1 µM [7]?
Answer: The inhibition at 0.1 µM was 62.8%.

Question: What about the Inhibition [8] of the same compound?
Answer: The Inhibition was 17.4%.

Question: What about the Inhibition [9] of the same compound?
Answer: The Inhibition was 31.9%.

Question: And the inhibition at 0.1 µM ([10]; labeling site Lys1, peptide VLLSEFRPSGELFAIKALK)?
Answer: Its inhibition at 0.1 µM is 63.2%.

Question: What about the inhibition at 0.1 µM ([10]; labeling site Lys2, peptide DLKLDNLLLDTEGYVK) of the same compound?
Answer: The inhibition at 0.1 µM was 33.7%.

Question: What about the inhibition at 0.1 µM [11] of the same compound?
Answer: The inhibition at 0.1 µM was 7%.

Question: What about the Inhibition [12] of the same compound?
Answer: Its Inhibition is 40.5%.

Question: What about the Inhibition ([13]; labeling site Lys1, peptide LVALKVIR) of the same compound?
Answer: Its Inhibition is 62.2%.

Question: And the Inhibition ([13]; labeling site Lys2, peptide DLKPQNLLISDTGELK)?
Answer: The Inhibition was 72.4%.

Question: And the Inhibition [14]?
Answer: Its Inhibition is -19.4%.

Question: What about the inhibition at 0.1 µM [15] of the same compound?
Answer: The inhibition at 0.1 µM was -17.1%.

Question: And the inhibition at 0.1 µM [16]?
Answer: Its inhibition at 0.1 µM is -5.6%.
